From patent publication US8198285B2, “Pyrazine derivatives” (Astrazeneca AB, priority 2010, dated 2012)
pEC50, pIC50: −log10 of the molar value. Structures can show the parent of a compound that is named as a salt.

Experiments:
[1] = test system: rat bone marrow
Description: 3-amino-6-(4-{3-[(3-methoxypropyl)amino]propyl}phenyl)-N-pyridin-3-ylpyrazine-2-carboxamide mono-besylate was also tested in an in vivo rat genotoxicity micronucleus study. The objective of this study was to investigate whether two oral doses of 3-amino-6-(4-{3-[(3-methoxypropyl)amino]propyl}phenyl)-N-pyridin-3-ylpyrazine-2-carboxamide mono-besylate increased the frequency of micronucleated immature erythrocytes (MIE) in rat bone marrow.
3-amino-6-(4-{3-[(3-methoxypropyl)amino]propyl}phenyl)-N-pyridin-3-ylpyrazine-2-carboxamide mono-besylate was administered to groups of 7 male Wistar Han rats, approximately 10 weeks old at dosing. Groups were given two doses of 0, 25, 125 and 250 mg/kg free-base equivalent (0, 59.5, 297 and 595 umol/kg) 24 hours apart and sampled for bone marrow analysis 24 hours after the second dose. Control rats were dosed with vehicle, 0.5% w/v hydroxypropyl methylcellulose and 0.1% w/v polysorbate 80 in phosphate buffered saline.
Animals were sacrificed 24 hours after the second dose and bone marrow smears prepared, fixed and stained with acridine orange. For each animal, 2000 immature erythrocytes (IE) were scored for the incidence of micronucleated cells (MIE) and the ratio of IE to mature erythrocytes (E) was determined in 1000 cells. In order to act as a quality control procedure, 6 slides from the bone-marrow of rats treated with cyclophosphamide at 20 mg/kg (72 umol/kg) in a previous study were included with the slides from the treated animals prior to staining and coding.

[2] = target: T1, human GSK3β enzyme (Homo sapiens, UniProt P49841); assay: In vitro GSK3β kinase assay (FRET, Z'-LYTE), Test (a); type: biochemical; conditions: read-out: IC50 versus human GSK3β enzyme
T1 construct: His6 (N); purchased Millipore 14-306; host or cells: baculovirus / Sf21 insect cells
T1 sequence (P49841 whole entry): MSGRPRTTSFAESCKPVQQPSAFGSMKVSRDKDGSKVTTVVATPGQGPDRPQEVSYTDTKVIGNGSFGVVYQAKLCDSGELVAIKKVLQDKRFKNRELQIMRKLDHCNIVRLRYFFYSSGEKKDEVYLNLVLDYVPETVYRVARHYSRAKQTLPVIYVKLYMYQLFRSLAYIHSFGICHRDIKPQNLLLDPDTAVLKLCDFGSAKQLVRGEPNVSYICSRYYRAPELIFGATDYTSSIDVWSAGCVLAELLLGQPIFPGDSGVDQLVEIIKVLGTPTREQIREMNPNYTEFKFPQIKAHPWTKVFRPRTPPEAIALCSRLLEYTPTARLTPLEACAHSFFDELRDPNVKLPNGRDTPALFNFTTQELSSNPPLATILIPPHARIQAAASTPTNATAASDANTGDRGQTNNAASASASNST
Description: This biochemical assay used a Fluorescence Resonance Energy Transfer (FRET)-based, coupled-enzyme format to determine the ability of test compounds to inhibit substrate phosphorylation by recombinant GSK3β serine/threonine kinase (Kleman-Leyer, K. et al. Drug Disc. Devel. 2003, 6:81-2). The substrate used in this assay was Z′-LYTE™ ser/Thr 9 peptide and the FRET assay kit was obtained from Invitrogen (Paisley, UK, catalogue number PV3324). N-terminal His6-tagged recombinant human GSK313, with an H350 L mutation, was expressed in baculovirus in Sf21 insect cells, purified and obtained from Millipore (Billerica, Mass., USA, catalogue number 14-306 Human).
Test compounds were prepared as 10 mM stock solutions in dimethylsulphoxide (DMSO) and diluted in DMSO as required. Aliquots (2.5 μl) of compound dilutions were added to the wells of an Optiplate-F PerkinElmer 384-well plate (Massachusetts, USA, catalogue number 6007270). Control wells that produced a maximum signal corresponding to maximum enzyme activity were created by using 100% phosphorylated peptide obtained from Invitrogen (Paisley, UK, catalogue number PV3326). A 5 μl aliquot of 100% phosphorylated peptide (100 μM in 1.33× kinase buffer) was added to all maximum control wells. 2.5 μl of 4% DMSO solution (v/v) in 1.33× kinase buffer was added to maximum control wells. Control wells that produced a minimum signal corresponding to 100% inhibited enzyme were created by adding 2.5 μl of 40 μM Staurosporine in 1.33× kinase buffer containing 4% DMSO (v/v). A 5 μl mixture of GSK3β (100 ng/μl) enzyme and non-phosphorylated substrate (Z-LYTE™ ser/Thr 9 peptide, 100 μM) in a 1.33× kinase buffer solution was added to each well except maximum control wells and the assay plate centrifuged at 270 g for 1 minute. The kinase buffer used 1.33× was obtained from Invitrogen (Paisley, UK, catalogue number PV3189) and contained 67 mM HEPES (pH 7.5), 13 mM MgCl2, 1.3 mM EGTA, 0.01% BRIJ-35. Then 2.5 μl adenosine triphosphate (28 μM) in kinase buffer was added per well, centrifuged at 270 g for 1 minute and then the assay plate was shaken for 1 hour at room temperature. A proprietary development solution was prepared by adding 58 μl of development reagent A (Invitrogen, Paisley, UK, catalogue number PV3297) to 2142 μl of development reagent B (Invitrogen, Paisley, UK, catalogue number P3127). […]
The resultant signals arising from laser light excitation at 400 nm were read using a Perkin Elmer Envision spectrophotometer (Perkin Elmer, Massachusetts, USA). […] A ratiometric method, which calculates the ratio (the Emission Ratio) of donor emission to acceptor emission after excitation of the donor fluorophore at 400 nm, quantitates reaction progress, as shown in the equation below. […]

[3] = test system: β-catenin accumulation in the nucleus of murine C3H/10T1/2 cells; assay: Cellular beta-catenin stabilisation assay, Test (b); type: cell-based; conditions: Mus musculus, 24 hours, read-out: EC50 versus cellular β-catenin accumulation in the nucleus of murine C3H/10T1/2 cells
Description: This assay uses an imaging based approach to measure the ability of test compounds to promote Beta-catenin stabilisation in the nucleus of C3H10T1/2 cells. Beta-catenin stabilisation is an indicator of GSK3β inhibition.
A C3H10T1/2 mouse clone 8 fibroblast cell line (American Type Culture Collection (ATCC, USA; catalogue number CRL 226) was routinely maintained at 37° C. with 5% CO2 in Basal Medium Eagle (BME, Invitrogen; Paisley, UK; catalogue number 41010) containing 10% (v/v) foetal bovine serum (FBS, Invitrogen, Paisley; UK; catalogue number 10270) and 2 mM L-glutamine (Invitrogen, Paisley, UK; catalogue number 25030024). For the assay, the cells were detached from the culture flask with ‘Accutase’ (Innovative Cell Technologies Inc., San Diego, USA; catalogue number AT104) using standard tissue culture methods and re-suspended in assay media comprising of BME containing 5% (v/v) FBS and 2 mM L-glutamine to give 55,555 cells per ml. Then, 90 μl of this solution was seeded into each well of a clear-bottom 96 well tissue culture plate (Perkin Elmer Viewplate; catalogue number 6005182) using a Multidrop Combi Dispenser (Thermo Fisher Scientific, Loughborough, UK) to give 5,000 cells per well. Plates were incubated overnight at 37° C. with 5% CO2 to allow the cells to adhere to the wells. Test compounds were prepared as 10 mM stock solutions in dimethylsulphoxide (DMSO) (Sigma-Aldrich; Poole, UK, catalogue number 49442-9) and serially diluted in DMSO. A Multidrop Combi was used to dispense 245 μl of pre-warmed assay media into a 96 well plate (Thermo Fisher Scientific, Loughborough, UK; catalogue number 50823925) before 5 μl of serially diluted compound was added to this intermediate plate. After mixing, 10 μl of each compound concentration was added to the cell plates. The total dilution factor from DMSO stock was 500 times. Control cells received either DMSO (0.2% v/v final concentration) or 10 μM positive control compound. The cells were incubated for 24 hours at 37° C. with 5% CO2.
After compound treatment the cells were fixed by the addition of 100 μl of 8% w/v paraformaldehyde (Sigma-Aldrich, Poole, UK; catalogue number P6148), directly into the assay plate wells. The cells were incubated at ambient temperature with fixative for 30 minutes before washing 3 times with 100 μl phosphate-buffered saline (PBS, Sigma-Aldrich; catalogue number D8537). […] The cells were then washed 3 times in 100 μl of PBS before the plates were sealed ready for image capture. Fluorescent images were captured and quantified using the Incell Analyser 3000 (GE Healthcare, USA). […]

Compound: COCCCNCCCc1ccc(-c2cnc(N)c(C(=O)Nc3cccnc3)n2)cc1.O=S(=O)(O)c1ccccc1 [3-amino-6-(4-{3-[(3-methoxypropyl)amino]propyl}phenyl)-N-pyridin-3-ylpyrazine-2-carboxamide mono-besylate]
- Maximum tolerated dose (highest dose) ([1]; two oral doses 24 hours apart, male Wistar Han rats): 250 mg/kg free-base equivalent
- Incidence of micronucleated immature erythrocytes (MIE) above the vehicle control ([1]; two oral doses up to 250 mg/kg free-base equivalent 24 hours apart, bone marrow 24 hours after second dose): no biologically or statistically significant increases

Compound: COCCNCCCc1ccc(-c2cnc(N)c(C(=O)Nc3cccnc3)n2)cc1 [Example 5, 3-Amino-6-(4-{3-[(2-methoxyethyl)amino]propyl}phenyl)-N-pyridin-3-ylpyrazine-2-carboxamide tri-hydrochloride]
- pIC50 [2]: ~7.68
- pEC50 [3]: ~6.04

Compound: COCCCNCCc1ccc(-c2cnc(N)c(C(=O)Nc3cccnc3)n2)cc1 [Example 6, 3-Amino-6-(4-{2-[(3-methoxypropyl)amino]ethyl}phenyl)-N-pyridin-3-ylpyrazine-2-carboxamide]
- pIC50 [2]: ~7.32
- pEC50 [3]: ~6.04

Compound: COCCNCCc1ccc(-c2cnc(N)c(C(=O)Nc3cccnc3)n2)cc1 [Example 7, 3-Amino-6-(4-{2-[(2-methoxyethyl)amino]ethyl}phenyl)-N-pyridin-3-ylpyrazine-2-carboxamide tri-hydrochloride]
- pIC50 [2]: ~7.10
- pEC50 [3]: ~5.41

Compound: O=P1(N(CCCl)CCCl)NCCCO1 (stereo not drawn) [cyclophosphamide, reference compound]
- Incidence of MIE compared with the vehicle control values ([1]; quality control slides, rats given 20 mg/kg in a previous study): significantly increased
